Activity calls are given as the source filed them. The rule behind the calls is not given here.
Legend:
Type in all cases: functional, organism-based
Mus musculus [1] = assay: Antiinflammatory activity in Swiss Webster mouse assessed as protection against carrageenan-induced paw edema at 30 ug/paw local peripheral pretreatment with compound for 15 mins followed by carrageenan challenge and measured after 6 hrs; details: dose 30.0 µg, time 375.0 min
Mus musculus [2] = species on record: Mus musculus; assay: Antiallodynic activity in Swiss Webster mouse assessed as protection against carrageenan-induced tactile allodynia at 30 ug/paw local peripheral pretreatment with compound for 15 mins followed by carrageenan challenge and measured after 6 hrs; details: dose 30.0 µg, time 375.0 min
Mus musculus [3] = assay: Antiinflammatory activity in local peripheral dosed Swiss Webster mouse assessed as protection against carrageenan-induced paw edema pretreated with compound for 15 mins followed by carrageenan challenge and measured after 6 hrs; details: dose 1-30 µg, time 375.0 min
Mus musculus [4] = assay: Antiallodynic activity in local peripheral dosed Swiss Webster mouse assessed as protection against carrageenan-induced tactile allodynia pretreated with compound for 15 mins followed by carrageenan challenge and measured after 6 hrs; details: dose 1-30 µg, time 375.0 min
Mus musculus [5] = assay: Antiinflammatory activity in Swiss Webster mouse assessed as protection against carrageenan-induced paw edema at 30 ug/paw local peripheral administration and measured after 4 to 6 hrs; details: dose 30.0 µg, time 4-6 hrs
Mus musculus [6] = assay: Antiinflammatory activity in Swiss Webster mouse assessed as protection against carrageenan-induced paw edema at 30 ug/paw, it; details: dose 30.0 µg
Mus musculus [7] = assay: Antiallodynic activity in it dosed Swiss Webster mouse assessed as protection against carrageenan-induced tactile allodynia
Mus musculus [8] = assay: Antiinflammatory activity in Swiss Webster mouse assessed as protection against carrageenan-induced paw edema at 3 to 30 ug/paw local peripheral pretreatment with compound for 15 mins before carrageenan challenge and measured every 3 days for 15 days; details: dose 3-30 µg, time 15.0 day
Mus musculus [9] = assay: Antiallodynic activity in local peripheral dosed Swiss Webster mouse assessed as protection against carrageenan-induced tactile allodynia measured every 3 days for 15 days; details: dose 3-30 µg, time 15.0 day
Mus musculus [10] = assay: Antiinflammatory activity in Swiss Webster mouse assessed as reversal of carrageenan-induced paw edema at 30 ug/paw local peripheral administration pretreated with carrageenan for 6 days followed by compound addition and measured 6 hrs post compound treatment; details: dose 30.0 µg
Mus musculus [11] = assay: Antiallodynic activity in Swiss Webster mouse assessed as reversal of carrageenan-induced tactile allodynia at 30 ug/paw local peripheral administration pretreated with carrageenan for 6 days followed by compound addition and measured 6 hrs post compound treatment; details: dose 30.0 µg
Mus musculus [12] = assay: Antiallodynic activity in hyperglycemic Swiss Webster mouse model of neuropathic pain assessed as reversal of carrageenan-induced tactile allodynia at 30 ug/paw local peripheral administration and measured after 6 hrs; details: dose 30.0 µg
Mus musculus [13] = assay: Antiallodynic activity in local peripheral dosed hyperglycemic Swiss Webster mouse model of neuropathic pain assessed as reversal of carrageenan-induced tactile allodynia measured after 6 hrs; details: dose 3-30 µg
Mus musculus [14] = species on record: Mus musculus; assay: Antiallodynic activity in hyperglycemic Swiss Webster mouse model of neuropathic pain assessed as reversal of carrageenan-induced tactile allodynia at 30 ug/paw, it and measured after 6 hrs; details: dose 30.0 µg
Mus musculus [15] = assay: Antiallodynic activity in it dosed hyperglycemic Swiss Webster mouse model of neuropathic pain assessed as reversal of carrageenan-induced tactile allodynia measured after 6 hrs; details: dose 3-30 µg
Mus musculus [16] = assay: Antiinflammatory activity in Swiss Webster mouse assessed as protection against carrageenan-induced paw edema at 30 ug/paw pretreated with naloxone for 15 mins followed by compound addition and measured after 6 hrs; details: dose 30.0 µg
Mus musculus [17] = assay: Antiinflammatory activity in Swiss Webster mouse assessed as protection against carrageenan-induced paw edema at 30 ug/paw pretreated with methiothepin for 15 mins followed by compound addition and measured after 6 hrs; details: dose 30.0 µg
Mus musculus [18] = assay: Antiinflammatory activity in Swiss Webster mouse assessed as protection against carrageenan-induced paw edema at 30 ug/paw pretreated with flumazenil for 15 mins followed by compound addition and measured after 6 hrs; details: dose 30.0 µg
Mus musculus [19] = species on record: Mus musculus; assay: Antiallodynic activity in Swiss Webster mouse assessed as protection against carrageenan-induced tactile allodynia at 30 ug/paw pretreated with naloxone for 15 mins followed by compound addition and measured after 6 hrs; details: dose 30.0 µg
Mus musculus [20] = species on record: Mus musculus; assay: Antiallodynic activity in Swiss Webster mouse assessed as protection against carrageenan-induced tactile allodynia at 30 ug/paw pretreated with methiothepin for 15 mins followed by compound addition and measured after 6 hrs; details: dose 30.0 µg
Mus musculus [21] = species on record: Mus musculus; assay: Antiallodynic activity in Swiss Webster mouse assessed as protection against carrageenan-induced tactile allodynia at 30 ug/paw pretreated with flumazenil for 15 mins followed by compound addition and measured after 6 hrs; details: dose 30.0 µg
Mus musculus [22] = assay: Antiinflammatory activity in Swiss Webster mouse assessed as protection against carrageenan-induced paw edema at 30 ug/paw pretreated with l-NAME for 15 mins followed by compound addition and measured after 6 hrs; details: dose 30.0 µg
Mus musculus [23] = assay: Antiinflammatory activity in Swiss Webster mouse assessed as protection against carrageenan-induced paw edema at 30 ug/paw pretreated with ODQ for 15 mins followed by compound addition and measured after 6 hrs; details: dose 30.0 µg
Mus musculus [24] = assay: Antiinflammatory activity in Swiss Webster mouse assessed as protection against carrageenan-induced paw edema at 30 ug/paw pretreated with glibenclamide for 15 mins followed by compound addition and measured after 6 hrs; details: dose 30.0 µg
Mus musculus [25] = species on record: Mus musculus; assay: Antiallodynic activity in Swiss Webster mouse assessed as protection against carrageenan-induced tactile allodynia at 30 ug/paw pretreated with l-NAME for 15 mins followed by compound addition and measured after 6 hrs; details: dose 30.0 µg
Mus musculus [26] = species on record: Mus musculus; assay: Antiallodynic activity in Swiss Webster mouse assessed as protection against carrageenan-induced tactile allodynia at 30 ug/paw pretreated with ODQ for 15 mins followed by compound addition and measured after 6 hrs; details: dose 30.0 µg
Mus musculus [27] = species on record: Mus musculus; assay: Antiallodynic activity in Swiss Webster mouse assessed as protection against carrageenan-induced tactile allodynia at 30 ug/paw pretreated with glibenclamide for 15 mins followed by compound addition and measured after 6 hrs; details: dose 30.0 µg

C=C[C@@]1(C)[C@H]2OC(=O)C(=C)[C@H]([C@@H]2OC(=O)/C(C)=C\C)[C@H](OC(=O)C(C)C)[C@@H]1C(=C)C(=O)O
Activity (Mus musculus [1]): Active | Activity (Mus musculus [2]): Active | Activity (Mus musculus [3]): Dose-Dependent Effect | Activity (Mus musculus [4]): Dose-Dependent Effect | Activity (Mus musculus [5]): Active | Activity (Mus musculus [6]): inactive | Activity (Mus musculus [7]): Dose-Dependent Effect | Activity (Mus musculus [8]): inactive | Activity (Mus musculus [9]): Dose-Dependent Effect | Activity (Mus musculus [10]): Active | Activity (Mus musculus [11]): Active | Activity (Mus musculus [12]): Active | Activity (Mus musculus [13]): Dose-Dependent Effect | Activity (Mus musculus [14]): Active | Activity (Mus musculus [15]): Dose-Dependent Effect | Activity (Mus musculus [16]): inactive | Activity (Mus musculus [17]): inactive | Activity (Mus musculus [18]): inactive | Activity (Mus musculus [19]): inactive | Activity (Mus musculus [20]): inactive | Activity (Mus musculus [21]): inactive | Activity (Mus musculus [22]): inactive | Activity (Mus musculus [23]): inactive | Activity (Mus musculus [24]): inactive | Activity (Mus musculus [25]): inactive | Activity (Mus musculus [26]): inactive | Activity (Mus musculus [27]): inactive

O=C(O)Cc1ccccc1Nc1c(Cl)cccc1Cl
Activity (Mus musculus [1]): Active | Activity (Mus musculus [2]): Active | Activity (Mus musculus [5]): Active | Activity (Mus musculus [10]): inactive | Activity (Mus musculus [11]): inactive

CC(C)C[C@H](CN)CC(=O)O
Activity (Mus musculus [12]): inactive | Activity (Mus musculus [14]): Active
